Assay in all cases: relative viability (nuclei count vs DMSO), 5 days (fraction); higher = more cells survive
Compound in the assay “AZ628 + Palbociclib”: CC1=C(C=C(C=C1)NC(=O)C2=CC(=CC=C2)C(C)(C)C#N)NC3=CC4=C(C=C3)N=CN(C4=O)C [AZ628] + CC(=O)c1c(C)c2cnc(Nc3ccc(N4CCNCC4)cn3)nc2n(C2CCCC2)c1=O [Palbociclib] (partner 0.5 µM)
The essentials:
(§1)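 Medians of duplicate plates are given as relative viability. That measure is the nuclei count in treated wells divided by the count in vehicle wells. Counts were taken on 4× images of lung cancer cell lines in 1536-well plates, 5 days after pin-tool dosing the day after seeding with one drug alone or a fixed anchor-drug dose plus five library-drug doses (not always all listed) in √10 steps.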

Compound in assay [1]: C[As](C)SC[C@H](NC(=O)CC[C@H](N)C(=O)O)C(=O)NCC(=O)O [Darinaparsin] + CC1(C)CCC(c2ccc(Cl)cc2)=C(CN2CCN(c3ccc(C(=O)NS(=O)(=O)c4ccc(N[C@H](CCN5CCOCC5)CSc5ccccc5)c(S(=O)(=O)C(F)(F)F)c4)cc3)CC2)C1 [Navitoclax] (partner 0.5 µM)
An outline of the steps:
as §1

Compound in assay [2]: C[As](C)SC[C@H](NC(=O)CC[C@H](N)C(=O)O)C(=O)NCC(=O)O [Darinaparsin] + O=C(CCCCCCC(=O)Nc1ccccc1)NO [Vorinostat] (partner 1 µM)
The essentials: as §1

Compound in the assay “QS11 + Luminespib”: C1CC2=C(C1)C=C(C=C2)OC3=NC(=C4C(=N3)N(C=N4)CC5=CC=C(C=C5)C6=CC=CC=C6)N[C@@H](CC7=CC=CC=C7)CO [QS11] + CCNC(=O)c1noc(-c2cc(C(C)C)c(O)cc2O)c1-c1ccc(CN2CCOCC2)cc1 [Luminespib] (partner 0.01 µM)
An outline of the steps:
as §1

Compound in the assay “QS11 + Pemetrexed”: C1CC2=C(C1)C=C(C=C2)OC3=NC(=C4C(=N3)N(C=N4)CC5=CC=C(C=C5)C6=CC=CC=C6)N[C@@H](CC7=CC=CC=C7)CO [QS11] + Nc1nc2[nH]cc(CCc3ccc(C(=O)N[C@@H](CCC(=O)O)C(=O)O)cc3)c2c(=O)[nH]1 [Pemetrexed] (partner 0.2 µM)
An outline of the steps:
as §1

On to LCLC-97TM1, for which the relative viability with AZ628 + Palbociclib (first compound 0.08 µM) was 0.231; in the assay with AZ628 + Palbociclib (first compound 0.253 µM), 0.217; with AZ628 + Palbociclib (first compound 0.8 µM), 0.193; with AZ628 + Palbociclib (first compound 2.53 µM), 0.182; with AZ628 + Palbociclib (first compound 8 µM), 0.113; in assay [1] (first compound 0.08 µM), 0.383. Also, the relative viability in assay [1] (first compound 0.8 µM) worked out at 0.947; in assay [1] (first compound 2.53 µM), 0.398; in assay [1] (first compound 8 µM) it was 0.579; in assay [2] (first compound 0.08 µM), 0.882; in assay [2] (first compound 0.8 µM) it was 0.862; in assay [2] (first compound 2.53 µM), 0.744. The relative viability in assay [2] (first compound 8 µM) stood at 0.895; with QS11 + Luminespib (first compound 0.08 µM) it was 0.709; with QS11 + Luminespib (first compound 0.253 µM), 0.907; in the assay with QS11 + Luminespib (first compound 2.53 µM), 0.768; in the assay with QS11 + Luminespib (first compound 8 µM), 0.69; with QS11 + Pemetrexed (first compound 0.253 µM), 0.167. For the same cell line, the relative viability with QS11 + Pemetrexed (first compound 2.53 µM) came out at 0.182; in the assay with QS11 + Pemetrexed (first compound 8 µM) it was 0.202.

The record behind these values is the supplement of paper PMC10307832.
